In the series the test system is male Wistar rats. As to the kind of experiment: Cold immersion tail withdrawal latency after intraperitoneal dosing. Type of series: in vivo, rat. The conditions noted are these: for Trial 1 Latency (s), post-treatment cold immersion response / Trial 2 Latency (s), post-treatment cold immersion response / Trial 3 Latency (s), post-treatment cold immersion response: from 30 min post-dose, -20° C bath. Here is the method: Three male Wistar rats at 8 weeks of age (Taconic Farms, Germantown, N.Y.) were utilized in the experiment. Each rat was grasped firmly, while the distal half of its tail was immersed in a liquid bath at a temperature of −20° C. Latency periods (in seconds) were measured from the time that tails were immersed to the time that the rat removed its tail from the liquid. Prior to dosing, rats were given three trials, approximately ten minutes apart. […] Post-dose trials were also approximately ten minutes apart. Animals were examined for acute adverse effects to both the cold liquid bath and the test article.

Residues, ends and D or L forms follow the SMILES beside them.

Turning to `CCOC(=O)C1CCCN1C(=O)C(N)Cc1ccc(O)cc1` (stereo not drawn) [Tyr-Pro-Ethyl] (H-Tyr-Pro-OEt; configuration not given here), for the setting “animal 1, 1 mg i.p.”, the “Mean latency of three trials, post-treatment cold immersion response” value (from here on “Mean latency of three trials”) came to 15.6 s; the “Post-treatment mean with longest latency period eliminated” value (“Post-treatment mean” for short) is given as 12.4; the “Trial 1 Latency (s), post-treatment cold immersion response” value (from here on “Trial 1 Latency (s)”) was 13.2 s; the “Trial 2 Latency (s), post-treatment cold immersion response” value (“Trial 2 Latency (s)” below) was 22.1 s. Further, where the note is “animal 1, 1 mg i.p.”, the “Trial 3 Latency (s), post-treatment cold immersion response” value (shortened to “Trial 3 Latency (s)”) is 11.5 s. Moreover, where the note is “animal 2, 2 mg i.p.”, the “Mean latency of three trials” value worked out at 7.2 s; the “Post-treatment mean” value amounted to 4.7; the “Trial 1 Latency (s)” value was 4.7 s; the “Trial 2 Latency (s)” value stood at 4.7 s. Moreover, under “animal 2, 2 mg i.p.”, the “Trial 3 Latency (s)” value worked out at 12.2 s. In addition, for the setting “animal 3, 0.5 mg i.p.”, the “Mean latency of three trials” value amounted to 7.2167 s; the “Post-treatment mean” value turned out to be 6.3; the “Trial 1 Latency (s)” value is listed as 6.45 s; the “Trial 2 Latency (s)” value amounted to 6.2 s. The “Trial 3 Latency (s)” value (animal 3, 0.5 mg i.p.) turned out to be 9.0 s. Also, the “Crossing of the BBB” value (rats, at the doses given (0.5, 1, 2 mg i.p.), inferred from latency data) is “able to cross the BBB”. Moreover, for the setting “rats, cerebrospinal fluid, inferred from latency data”, the Hydrolysis by esterases entry is on record as “hydrolyzed by esterases in the cerebrospinal fluid”. The “Effect on sensitivity to noxious stimulus” value (rats, cold immersion, 0.5, 1, 2 mg i.p.) is on record as “increase sensitivity to noxious stimulus”.

Source of the values: patent US20130072438A1, “OPIOID PEPTIDE ESTERS AND METHODS OF USE” (The United States Government as represented by the …, priority 2011, published 2013).
